The text below walks through data of ChEMBL document CHEMBL5244210, “Drug discovery in tuberculosis. New drug targets and antimycobacterial agents” (Eur J Med Chem, 2018).

Data set [1] concerns Mycobacterium tuberculosis. As to the kind of experiment: Antibacterial activity against Mycobacterium tuberculosis assessed as bacterial growth inhibition by HTS assay. The format is functional.
The subject of data set [2] is Mycobacterium tuberculosis. As to the kind of experiment: Antibacterial activity against Mycobacterium tuberculosis H37Rv assessed as bacterial growth inhibition incubated for 6 days by resazurin staining based assay. It counts as functional. To be noted: 144 h, time 6 day. In general terms: Resazurin is reduced to fluorescent resorufin, in cell work by metabolically active cells.

Data set [3] deals with Mycobacterium tuberculosis. As to the kind of experiment: Antibacterial activity against Mycobacterium tuberculosis assessed as bacterial growth inhibition. The format is functional.
Data set [4] relates to Mycobacterium tuberculosis. As to the kind of experiment: Antibacterial activity against wild type Mycobacterium tuberculosis H37Rv assessed as bacterial growth inhibition. The format is functional, organism-based.
Data set [5] concerns Mycobacterium tuberculosis. As to the kind of experiment: Antibacterial activity against wild type Mycobacterium tuberculosis H37Rv infected in BALB/c mouse assessed as bacterial growth inhibition po administrated for 5 days a week via gavage for 4 weeks. It counts as functional. As to conditions: 672 h.
For data set [6], the system named is Mycobacterium tuberculosis. Nature of the data set: Antibacterial activity against Mycobacterium tuberculosis H37Rv (ATCC 27294) assessed as bacterial growth inhibition incubated for 7 days by MABA assay. The format is functional. To be noted: 168 h, time 7 day.
Data set [7] deals with Mycobacterium tuberculosis. Nature of the data set: Antibacterial activity against Mycobacterium tuberculosis H37RV ATCC 27294 assessed as bacterial growth inhibition. The format is functional.
Data set [8] deals with Mycobacterium tuberculosis. As to the kind of experiment: Antibacterial activity against wild type Mycobacterium tuberculosis H37Rv assessed as bacterial growth inhibition incubated for 6 days by HTS assay. The format is functional. To be noted: 144 h, time 6 day.
The test system of data set [9] is Mycobacterium tuberculosis. As to the kind of experiment: Antibacterial activity against Mycobacterium tuberculosis H37Rv (ATCC 27294) assessed as bacterial growth inhibition by MABA assay. The format is functional.
The subject of data set [10] is Mycobacterium tuberculosis. Nature of the data set: Antibacterial activity against Mycobacterium tuberculosis H37Rv MTCC 300 assessed as bacterial growth inhibition by alamar blue assay. It counts as functional.
Data set [11] has as its target T1, Enoyl-[acyl-carrier-protein] reductase [NADH] (Mycobacterium tuberculosis) (UniProt P9WGR1).
T1 sequence (whole entry): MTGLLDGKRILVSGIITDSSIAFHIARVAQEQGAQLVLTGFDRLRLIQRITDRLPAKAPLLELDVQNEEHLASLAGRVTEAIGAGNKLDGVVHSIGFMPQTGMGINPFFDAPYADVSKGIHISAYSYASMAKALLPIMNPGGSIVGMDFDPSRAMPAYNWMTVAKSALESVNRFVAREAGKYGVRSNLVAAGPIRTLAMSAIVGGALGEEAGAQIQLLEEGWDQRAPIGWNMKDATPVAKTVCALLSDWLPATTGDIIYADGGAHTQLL
As to the kind of experiment: Inhibition of Mycobacterium tuberculosis InhA assessed as residence time.

The test system of data set [12] is Mycobacterium tuberculosis. Nature of the data set: Antibacterial activity against Mycobacterium tuberculosis MmpL3 assessed as bacterial growth inhibition by HTS assay. It counts as functional.
Data set [13] concerns Mycobacterium tuberculosis. As to the kind of experiment: Antibacterial activity against Mycobacterium tuberculosis H37Rv infected in human THP-1 cells assessed as bacterial growth inhibition. The format is functional.
Data set [14] relates to Mycobacterium tuberculosis. Nature of the data set: Antibacterial activity against Mycobacterium tuberculosis H37Rv infected in mouse RAW264.7 cells assessed as bacterial growth inhibition. The format is functional.
A short description of data set [15]: Oral bioavailability in mouse. The format is ADME, organism-based. To be noted: in vivo.
For data set [16], the system named is Mycobacterium tuberculosis. As to the kind of experiment: Antibacterial activity against wild type Mycobacterium tuberculosis H37Rv assessed as bacterial growth inhibition by alamar blue staining based assay. It counts as functional.
The test system of data set [17] is Mycobacterium tuberculosis. Nature of the data set: Antibacterial activity against Mycobacterium tuberculosis infected in mouse RAW264.7 cells assessed as bacterial growth inhibition by REMA assay. It counts as functional, organism-based.
For data set [18], the system named is Mycobacterium tuberculosis. As to the kind of experiment: Antibacterial activity against Mycobacterium tuberculosis H37Rv infected in mouse RAW264.7 cells assessed as bacterial growth inhibition by REMA assay. The format is functional.

The structures appear in SMILES notation. Converted amounts (≈) assume the structure as drawn.

As usually defined, the MIC is the lowest concentration found to suppress growth. A word on the IC50: it is the concentration that gives 50% inhibition. The MIC50 is an inhibitory concentration at the 50% level, which refers to growth in some studies and to a panel of isolates in others. Usually bioavailability stands for the share of a dose that reaches the circulation, judged against a reference dose that is usually intravenous. Low readings indicate poor availability, high ones good availability. As usually defined, the MIC90 is an inhibitory concentration at the 90% level, which refers to growth in some studies and to a panel of isolates in others.

For `Cc1c(CN2CCN(C)CC2)cc(-c2ccc(Cl)cc2)n1-c1ccc(Cl)cc1`, the MIC in data set [1] was 3.62 µM (≈ 1.5 µg/mL). In the case of `CCc1ccc([C@H]2C[C@@H](C(F)(F)F)n3ncc(C(=O)NCc4ccc(OC)cc4)c3N2)cc1`, in data set [2], the MIC stood at 0.3 µM (≈ 0.138 µg/mL). For `Oc1cc(Cl)ccc1Oc1ccc(Cl)cc1Cl` [TRICLOSAN], in [3], the MIC is 138 µM (≈ 40 µg/mL). For the molecule `COc1ccc(CNc2nc3cc(C(F)(F)F)ccc3nc2C(=O)O)cc1`, the minimum inhibitory concentration (MIC) in [4] stood at 3.1 µM. Regarding `FC(F)(F)Oc1ccc(Oc2ccc(CN3CCC4(CC3)OCCc3sccc34)cc2)cc1`, in data set [2], the minimum inhibitory concentration (MIC) was found to be 0.06 µM (≈ 0.0285 µg/mL). For the molecule `C[C@H]1COC2(CCN(c3nc(=O)c4cc(C(F)(F)F)cc([N+](=O)[O-])c4s3)CC2)O1` [BTZ-043], the MIC in [4] turned out to be 0.00023 µM; in data set [5], 1 ng/mL (≈ 2.32 nM).

On to `C[C@H]1COC2(CCN(c3nc(=O)c4cc(C(F)(F)F)cc(-n5cccc5)c4s3)CC2)O1`, for which the minimum inhibitory concentration (MIC) in data set [4] worked out at 0.35 µM. Consider `CCc1ccc([C@H]2C[C@@H](C(F)(F)F)n3ncc(C(=O)NCc4ccc5c(c4)OCO5)c3N2)cc1`, for which the minimal inhibitory concentration (MIC) in data set [2] was determined as 0.16 µM (≈ 0.0756 µg/mL).

In the case of `Cc1cn2c(C(=O)NCc3ccc(N4CCC(c5ccc(OC(F)(F)F)cc5)CC4)cc3)c(C)nc2s1`, the MIC in data set [6] is 0.0009 µM (≈ 0.000476 µg/mL).

As to `OB1c2ccccc2N=C(S)N1c1cccnc1`, the MIC in data set [7] came to 31.4 µM (≈ 8.01 µg/mL). For the molecule `CC[C@@H](CO)NCCN[C@@H](CC)CO` [ETHAMBUTOL], the MIC in data set [3] was 10 µM (≈ 2.04 µg/mL). `CC1(C)CCC(NC(=O)c2cc3c(Cl)cc(Cl)cc3[nH]2)CC1`: in [8], the MIC worked out at 0.015 µM (≈ 0.00509 µg/mL). On to `Cc1ccc(-c2nc3ccc(C)cn3c2CC(=O)N(C)C)cc1` [ZOLPIDEM], for which the MIC in data set [9] was 10 µM (≈ 3.07 µg/mL).

As to `CCOC(=O)NC(=O)c1ccsc1NC(=O)c1nc2ccccc2s1`, in data set [3], the minimal inhibitory concentration (MIC) worked out at 0.027 µM (≈ 0.0101 µg/mL). As for `O=C(Nc1nnc(-c2ccc([N+](=O)[O-])cc2)s1)C1CC(=O)N(c2ccccc2)C1` (stereo not drawn), in data set [10], the MIC is 61 µM (≈ 25 µg/mL). For `Cc1c(CN2CCOCC2)cc(-c2ccc(C(C)C)cc2)n1-c1ccc(F)cc1`, the minimum inhibitory concentration (MIC) in data set [1] was determined as 0.12 µM (≈ 0.0471 µg/mL). `CC1(C)CCC(NC(=O)c2cc3c(F)cc(F)cc3[nH]2)CC1`: the MIC in data set [8] came out at 0.023 µM (≈ 0.00705 µg/mL). `CC(C)=CCC/C(C)=C/CNCCNC1C2CC3CC(C2)CC1C3` (stereo not drawn) [SQ109]: the minimum inhibitory concentration (MIC) in data set [3] is 0.78 µM (≈ 0.258 µg/mL). Take `Cc1cn2c(C(=O)NCc3ccc(C(F)(F)F)cc3)c(C)nc2s1`: in data set [6], the MIC is 0.006 µM (≈ 0.00212 µg/mL). With `CCCCCCc1ccc(Oc2ccccc2C#N)c(O)c1`, the MIC in data set [3] is 11 µM (≈ 3.25 µg/mL). The TIME in data set [11] stood at 1.33 h. `CCCn1cnc2cc(NCc3ccc(Cl)cc3Cl)ccc21`: the MIC in data set [12] amounted to 16 µM (≈ 5.35 µg/mL). With `Cc1c(Cn2cc(C(=O)NCCO)c3ncccc32)ncnc1OC(F)F`, the MIC in data set [13] came to 0.78 µM (≈ 0.294 µg/mL). `Cc1c(OCC(F)(F)F)ccnc1C[S+]([O-])c1nc2ccccc2[nH]1` (stereo not drawn) [LANSOPRAZOLE]: the IC50 in data set [4] worked out at 2200 nM.

With `CCc1nc2ccc(Cl)cn2c1C(=O)NCc1ccc(N2CCC(c3ccc(OC(F)(F)F)cc3)CC2)cc1` [TELACEBEC], the MIC50 in data set [14] is 0.00028 µM (≈ 0.000156 µg/mL); in data set [4], 0.0027 µM (≈ 0.0015 µg/mL). Besides, the bioavailability in [15] stood at 90%.

With `c1cc2c(s1)CCOC21CCN(Cc2ccc3c(c2)OCCO3)CC1`, in [2], the minimum inhibitory concentration (MIC) amounted to 0.3 µM (≈ 0.107 µg/mL). For the molecule `C[C@H]1COC2(CCN(c3nc(=S)c4cc(C(F)(F)F)cc([N+](=O)[O-])c4s3)CC2)O1`, the MIC in data set [16] came out at 0.02 µM (≈ 0.00895 µg/mL). With `Cc1c(Cn2cc(C(=O)NCCO)c3ncccc32)ncnc1N(C)C`, the minimal inhibitory concentration (MIC) in data set [13] worked out at 0.5 µM (≈ 0.177 µg/mL). Take `Fc1cc2nc(Cc3ccc(Cl)cc3)[nH]c2cc1-n1ccnc1`: the minimal inhibitory concentration (MIC) in data set [12] came to 76.5 µM (≈ 25 µg/mL).

`O=c1nc(N2CCN(CC3CCCCC3)CC2)sc2c(-n3cccc3)cc(C(F)(F)F)cc12`: the minimum inhibitory concentration (MIC) in data set [4] stood at 0.34 µM. For `O=c1nc(N2CCN(CC3CCCCC3)CC2)sc2c([N+](=O)[O-])cc(C(F)(F)F)cc12` [MACOZINONE], the minimal inhibitory concentration (MIC) in data set [4] stood at 0.19 ng/mL; in data set [5], 0.19 ng/mL (≈ 0.416 nM). In the case of `CN(C)c1ccc(-c2nc3cc(F)c(-n4ccnc4)cc3n2Cc2ccccc2)cc1`, the minimum inhibitory concentration (MIC) in [12] turned out to be 30.3 µM (≈ 12.5 µg/mL). Consider `O=C(C1CCN(c2nnc(-n3cccc3)s2)CC1)N1CCC(Cc2ccccc2)CC1`, for which the MIC in [3] was 4 µM (≈ 1.74 µg/mL). In the case of `CCc1ccn2c(C(=O)NCc3ccc(C)cc3)c(C)nc2c1`, the MIC in [9] was found to be 0.004 µM (≈ 0.00123 µg/mL). In the case of `CCCCCCc1ccc(Oc2ccccc2C)c(O)c1`, the MIC in [3] was found to be 8.46 µM (≈ 2.41 µg/mL). In data set [11], the TIME worked out at 0.4 h. As to `Cc1c(OCC(F)(F)F)ccnc1CSc1nc2ccccc2[nH]1` [LANSOPRAZOLE SULFIDE], the 50% inhibitory concentration (IC50) came to 590 nM in [17] and 460 nM in [4]. Further, the MIC90 in [18] turned out to be 1.13 µM (≈ 0.399 µg/mL).
